“Also recorded” adds a separate entry of the source. Where two headings read alike, the source gives them in different places. Starred links: 1 amine or outer side, 2 acyl side, 3 side chain; linkers in the order of their positions; H or OH if unused. Non-standard residues stand in square brackets, D forms with d. Residues, ends and D or L forms follow the SMILES beside them. X4 = O=C(c1cc(CN[*:1])ccc1Cl)[*:2]; NMeR = CN[C@@H](CCCNC(=N)N)C(=O)O; 3Amb = NCc1cccc(C(=O)O)c1; dAbu = CC[C@@H](N)C(=O)O
Columns and labels:
[1] = biological target: agonist-induced platelet aggregation (Homo sapiens, UniProt P05106+P08514); test: Platelet Aggregation Assay; type: cell-based; conditions: human PRP; for IC50: agonist-induced aggregation
Protocol: Blood was collected into 10 ml citrated Vacutainer tubes.

[2] = test system: already formed platelet-rich clot; conditions: for lytic effect on already formed platelet-rich clot: varying concentrations
Protocol: Thrombolytic Assay: Venous blood was obtained from the arm of a healthy human donor who was drug-free and aspirin free for at least two weeks prior to blood collection, and placed into 10 ml citrated Vacutainer tubes. The blood was centrifuged for 15 minutes at 1500 ×g at room temperature, and platelet rich plasma (PRP) was removed. To the PRP was then added 1×10^- 3M of the agonist ADP, epinephrine, collagen, arachidonate, serotonin or thrombin, or a mixture thereof, and the PRP incubated for 30 minutes. The PRP was centrifuged for 12 minutes at 2500×g at room temperature. The supernatant was then poured off, and the platelets remaining in the test tube were resuspended in platelet poor plasma (PPP), which served as a plasminogen source. The suspension was then assayed on a Coulter Counter (Coulter Electronics, Inc., Hialeah, Fla.), to determine the platelet count at the zero time point. After obtaining the zero time point, test compounds were added at various concentrations. Test samples were taken at various time points and the platelets were counted using the Coulter Counter. To determine the percent of lysis, the platelet count at a time point subsequent to the addition of the test compound was subtracted from the platelet count at the zero time point, and the resulting number divided by the platelet count at the zero time point. […] For the IC50 evaluation, the test compounds were added at various concentrations, and the percentage of lysis caused by the test compounds was calculated.
Compounds A and B were also tested at varying concentrations using the thrombolytic assay described above (FIG. Ib). […] The clot was formed by incubating platelets with a mixture of agonists (TEAC mixture), which consists of thrombin (0.01 U/ml), epinephrine (250 uM), ADP (250 uM), and collagen (10 ug.ml), for 30 minutes. As a comparison, a linear peptide of sequence arginine-glycine-aspartic acid-serine (RGDS) was also tested in the thrombolytic assay.

[3] = test system: femoral artery reocclusion; test: femoral artery reocclusion post-thrombolysis; type: in vivo, canine (male or female mongrel dogs)
Protocol: Effects of Compound A vs saline, when given to anesthetized canine (male or female mongrel dogs) at 1.0 mg/kg I.V., on the incidence of femoral artery reocclusion post-thrombolysis with streptokinase (250-300×1000 IU/kg) or t-PA. […] Data represents mean ±SEM, n=6 in each group.

[4] = test system: thrombus in the femoral artery; test: in vivo thrombolysis, modified Lucchesi model; conditions: listed as Compound A
Source text: Data represent mean±SEM. n=3-6 in each group.

[5] = test system: activated human platelets; test: binding of 3H-labeled Compound A to activated human platelets; conditions: Scatchard analysis
Source text: (§1) This effect may explain the lyric efficacy of the compounds of the present invention.

[6] = biological target: T1, platelet GPIIb/IIIa receptor (Homo sapiens, UniProt P05106+P08514); test: Platelet-Fibrinogen Binding Assay (125I-fibrinogen, h-GPP); conditions: fibrinogen bound 20 minutes before compound
T1 construct: Human PRP (h-PRP) was applied to a Sepharose column for the purification of platelet fractions; endogenous in cells; host or cells: human gel-purified platelets (h-GPP) from donor platelet-rich plasma
Protocol: Platelet-Fibrinogen Binding Assay: Binding of ^125 I-fibrinogen to platelets was performed as described by Bennett et al. (1983) Proc. Natl. Acad. Sci. USA 80: 2417-2422, with some modifications as described below. Human PRP (h-PRP) was applied to a Sepharose column for the purification of platelet fractions. Aliquots of platelets (5×10^8 cells) along with 1 mM calcium chloride were added to removable 96 well plates prior to the activation of the human gel purified platelets (h-GPP). Activation of the human gel purified platelets was achieved using ADP, collagen, arachidonate, epinephrine, and/or thrombin in the presence of the ligand, ^125 I-fibrinogen. The ^125 I-fibrinogen bound to the activated, platelets was separated from the free form by centrifugation and then counted on a gamma counter.

[7] = test system: platelet granular secretion; conditions: cited from earlier work
[8] = biological target: T2, purified GPIIb/IIIa receptors obtained from human platelets (Homo sapiens, UniProt P05106+P08514); test: purified GPIIb/IIIa-biotinylated fibrinogen ELISA; type: binding; conditions: competitive; Michaelis-Menten analysis
T2 construct: purified GPIIb/IIIa receptors obtained from human platelets; from tissue; host or cells: human platelets
Source text: as §1

Chain of agonist-induced platelet aggregation (P08514 32-1039): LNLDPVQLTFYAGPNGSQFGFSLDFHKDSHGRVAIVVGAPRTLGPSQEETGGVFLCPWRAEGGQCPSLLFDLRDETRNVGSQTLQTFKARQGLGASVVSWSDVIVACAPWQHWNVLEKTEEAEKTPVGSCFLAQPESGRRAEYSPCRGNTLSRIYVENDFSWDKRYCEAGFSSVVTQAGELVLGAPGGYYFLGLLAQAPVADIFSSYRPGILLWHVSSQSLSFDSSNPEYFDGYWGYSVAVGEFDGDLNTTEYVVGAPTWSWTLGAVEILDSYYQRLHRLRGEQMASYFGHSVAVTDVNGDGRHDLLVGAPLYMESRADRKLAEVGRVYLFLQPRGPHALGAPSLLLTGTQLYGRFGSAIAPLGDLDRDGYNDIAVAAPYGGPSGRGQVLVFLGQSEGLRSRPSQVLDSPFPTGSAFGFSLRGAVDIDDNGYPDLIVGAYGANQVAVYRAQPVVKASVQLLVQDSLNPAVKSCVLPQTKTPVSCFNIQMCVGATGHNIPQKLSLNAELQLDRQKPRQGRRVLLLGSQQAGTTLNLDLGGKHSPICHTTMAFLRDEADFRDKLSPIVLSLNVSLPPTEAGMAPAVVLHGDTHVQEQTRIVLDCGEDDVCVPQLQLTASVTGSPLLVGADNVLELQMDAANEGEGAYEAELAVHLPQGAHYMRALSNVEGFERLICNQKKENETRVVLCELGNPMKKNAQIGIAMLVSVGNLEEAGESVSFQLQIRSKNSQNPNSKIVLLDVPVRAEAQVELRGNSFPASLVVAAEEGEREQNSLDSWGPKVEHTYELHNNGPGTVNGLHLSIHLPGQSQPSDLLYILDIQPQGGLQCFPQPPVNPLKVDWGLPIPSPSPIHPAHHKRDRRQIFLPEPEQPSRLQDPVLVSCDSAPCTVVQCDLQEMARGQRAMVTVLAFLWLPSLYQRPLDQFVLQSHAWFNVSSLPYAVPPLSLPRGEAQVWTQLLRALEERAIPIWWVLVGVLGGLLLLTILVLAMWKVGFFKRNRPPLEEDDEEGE
Chain of agonist-induced platelet aggregation (P05106 27-788): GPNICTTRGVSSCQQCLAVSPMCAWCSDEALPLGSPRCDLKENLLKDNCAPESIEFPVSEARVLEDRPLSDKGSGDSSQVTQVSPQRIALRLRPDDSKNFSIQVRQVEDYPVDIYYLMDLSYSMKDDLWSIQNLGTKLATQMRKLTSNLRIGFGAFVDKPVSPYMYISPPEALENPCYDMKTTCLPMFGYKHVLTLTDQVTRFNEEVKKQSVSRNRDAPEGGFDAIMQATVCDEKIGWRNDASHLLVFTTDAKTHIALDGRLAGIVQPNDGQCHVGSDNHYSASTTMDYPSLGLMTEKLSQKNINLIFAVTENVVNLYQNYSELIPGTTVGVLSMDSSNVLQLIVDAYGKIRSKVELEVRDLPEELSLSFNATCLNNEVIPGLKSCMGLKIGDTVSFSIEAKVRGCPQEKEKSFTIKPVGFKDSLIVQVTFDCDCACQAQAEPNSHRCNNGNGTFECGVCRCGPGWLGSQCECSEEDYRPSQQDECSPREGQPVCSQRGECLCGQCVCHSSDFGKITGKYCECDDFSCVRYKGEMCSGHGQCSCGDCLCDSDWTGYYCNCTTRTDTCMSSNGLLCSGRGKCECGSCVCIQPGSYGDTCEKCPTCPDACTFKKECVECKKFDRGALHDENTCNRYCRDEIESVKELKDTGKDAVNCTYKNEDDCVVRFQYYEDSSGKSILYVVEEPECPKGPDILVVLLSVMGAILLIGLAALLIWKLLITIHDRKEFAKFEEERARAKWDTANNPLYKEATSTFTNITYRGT
T1 sequence (P08514 32-887 limits assumed): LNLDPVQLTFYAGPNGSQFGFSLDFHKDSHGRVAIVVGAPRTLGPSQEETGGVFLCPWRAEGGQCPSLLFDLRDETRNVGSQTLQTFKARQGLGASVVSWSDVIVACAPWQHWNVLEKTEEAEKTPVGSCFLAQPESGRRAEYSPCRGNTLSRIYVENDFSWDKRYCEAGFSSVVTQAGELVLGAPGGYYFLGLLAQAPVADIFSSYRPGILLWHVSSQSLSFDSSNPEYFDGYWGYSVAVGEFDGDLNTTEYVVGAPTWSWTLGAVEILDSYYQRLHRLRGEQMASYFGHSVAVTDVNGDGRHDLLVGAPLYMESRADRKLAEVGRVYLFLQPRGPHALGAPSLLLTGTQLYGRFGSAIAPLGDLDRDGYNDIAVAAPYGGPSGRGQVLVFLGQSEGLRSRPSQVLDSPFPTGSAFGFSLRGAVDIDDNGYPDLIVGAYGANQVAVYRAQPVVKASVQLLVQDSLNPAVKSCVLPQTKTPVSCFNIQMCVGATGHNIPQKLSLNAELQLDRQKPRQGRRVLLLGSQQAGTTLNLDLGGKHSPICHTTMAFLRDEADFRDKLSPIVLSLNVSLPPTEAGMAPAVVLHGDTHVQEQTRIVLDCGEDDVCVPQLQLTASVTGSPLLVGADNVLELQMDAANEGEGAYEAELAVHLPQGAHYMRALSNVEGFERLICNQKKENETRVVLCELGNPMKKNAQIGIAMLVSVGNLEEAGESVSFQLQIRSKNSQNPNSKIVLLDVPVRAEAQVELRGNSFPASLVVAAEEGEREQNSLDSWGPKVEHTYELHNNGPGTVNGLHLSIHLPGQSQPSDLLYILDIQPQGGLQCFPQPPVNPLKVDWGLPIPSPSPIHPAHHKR
T1 sequence (P08514 891-1039 partner limits assumed): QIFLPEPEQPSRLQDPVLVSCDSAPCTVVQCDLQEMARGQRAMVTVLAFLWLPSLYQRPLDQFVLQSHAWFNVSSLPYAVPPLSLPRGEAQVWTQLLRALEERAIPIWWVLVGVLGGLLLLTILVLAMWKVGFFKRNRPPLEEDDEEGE
T1 sequence (P05106 27-788): as the sequence (P05106 27-788) above
T2 sequence (P08514 32-887 limits assumed): as the sequence (P08514 32-887 limits assumed) above
T2 sequence (P08514 891-1039 partner limits assumed): as the sequence (P08514 891-1039 partner limits assumed) above
T2 sequence (P05106 27-788): as the sequence (P05106 27-788) above

## CC(C)[C@H]1NC(=O)c2cccc(c2)CNC(=O)[C@H](CC(=O)O)NC(=O)CNC(=O)[C@H](CCCNC(=N)N)N(C)C1=O [Example 4, cyclo-(D-Val-NMeArg-Gly-Asp-Mamb)]
[1]
  IC50: < 1000 nM
[2]
  IC50: 500 to 1000 nM
[2]; in vitro, pre-formed platelet-rich clot
  thrombolytic effect in combination with tPA, urokinase or streptokinase: significantly better than the additive effects of both agents
[2]; listed as B
  lytic effect on already formed platelet-rich clot: significant lyric efficacy of pre-formed platelet rich-clot
[2]; listed as Compound B
  lytic effect on already formed platelet-rich clot: significant lytic effect on the clot

## CC[C@H]1NC(=O)c2cccc(c2)CNC(=O)[C@H](CC(=O)O)NC(=O)CNC(=O)[C@H](CCCNC(=N)N)N(C)C1=O [Example 3, cyclo-(D-Abu-NMeArg-Gly-Asp-Mamb)] (cyclo([NMeR]GD[3Amb][dAbu]))
[1]; added after initiation of aggregation
  deaggregation of platelets: deaggregate platelets after the initiation of aggregation
[1]
  IC50: < 1000 nM
[3]; 1.0 mg/kg I.V., post-thrombolysis
  period without reocclusion: > 240 min
[3]; 1.0 mg/kg I.V., post-thrombolysis with streptokinase or t-PA
  prevention of reocclusion: 100%
[3]; dog, in vivo
  reocclusion following SK or t-PA thrombolysis: virtually no reocclusion
[4]; 1 mg/kg I.V. plus sub-optimum streptokinase (75 KU)
  in vivo thrombolytic efficacy with streptokinase: significant synergistic effect in fully lysing the thrombus; also recorded: increase in in vivo thrombolytic efficacy while allowing a significantly lower dose of streptokinase
[4]; 1 mg/kg I.V.
  in vivo thrombolytic efficacy alone: significant lysis of an already formed thrombus in the femoral artery; also recorded: good in vivo thrombolytic efficacy
[2]; 0.001 mM, platelet stimulation 1x10^-3 M ADP
  lysis percentage: ≥ 70%
[2]; listed as A
  lytic effect on already formed platelet-rich clot: significant lyric efficacy of pre-formed platelet rich-clot
[2]; listed as Compound A
  lytic effect on already formed platelet-rich clot: significant lytic effect on the clot
[5]
  Kd: 0.1 nM
[6]
  displacement of 125I-fibrinogen bound to activated platelets: displace ^125 I-fibrinogen bound to activated platelets

## CC(=O)Oc1ccccc1C(=O)O [aspirin, acetylsalicyclic acid, reference compound]
[7]
  effect on platelet granular secretion (PAI-1, serotonin): inhibit platelet granular secretion

## CC(C)[C@H]1NC(=O)c2ccccc2CNC(=O)[C@H](CC(=O)O)NC(=O)CNC(=O)[C@H](CCCNC(=N)N)N(C)C1=O [Example 91, cyclo-(D-Val-NMeArg-Gly-Asp-2-aminomethylbenzoic acid)]
[1]
  IC50: < 1000 nM

## CC[C@H]1NC(=O)c2cc(ccc2Cl)CNC(=O)[C@H](CC(=O)O)NC(=O)CNC(=O)[C@H](CCCNC(=N)N)N(C)C1=O [Example 100a, cyclo-(D-Abu-NMeArg-Gly-Asp-3-aminomethyl-6-chlorobenzoic acid)] (cyclo([NMeR]GD[X4][dAbu]))
[1]
  IC50: < 1000 nM

## CC[C@@H](C)[C@H]1NC(=O)c2cccc(c2)CNC(=O)[C@H](CC(=O)O)NC(=O)CNC(=O)[C@H](CCCNC(=N)N)N(C)C1=O [Example 13r, cyclo-(D-Ile-NMeArg-Gly-Asp-Mamb)] (cyclo([NMeR]GD[3Amb][dI]))
[1]
  IC50: < 1000 nM

## CC[C@H]1NC(=O)c2cccc(c2)CNC(=O)[C@H](CC(=O)O)NC(=O)CNC(=O)[C@H](CCCN=C(N)N)N(C)C1=O [Example 3, cyclo-(D-Abu-NMeArg-Gly-Asp-Mamb)] (cyclo([NMeR]GD[3Amb][dAbu]))
[8]
  Ki: 0.4 nM

## hirudin
[7]
  effect on platelet granular secretion (PAI-1, serotonin): inhibit platelet granular secretion

Reference: patent US5635477A, “Cyclic compounds useful as inhibitors of platelet glycoprotein IIB/IIIA” (The DuPont Merck Pharmaceutical Company, priority 1995, dated 1997)
